From article PMC6934184, “Selective DNA-PKcs inhibition extends the therapeutic index of localized radiotherapy and chemotherapy” (The Journal of Clinical Investigation, 2019)

Target: T1, ZAK (Homo sapiens, UniProt Q9NYL2)
T1 construct: purchased Thermo Fisher Scientific (Life Technologies) SelectScreen
Test: SelectScreen LanthaScreen
Assay type: binding
Conditions: read-out: % displacement
Method in brief: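 Percent values come from Thermo SelectScreen profiling of NU5455, combining activity and binding assays. CSF1R was run in Z'LYTE format at Km app ATP, and CAMK1 in Adapta format with ATP listed at 10.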

T1 sequence (Q9NYL2 whole entry): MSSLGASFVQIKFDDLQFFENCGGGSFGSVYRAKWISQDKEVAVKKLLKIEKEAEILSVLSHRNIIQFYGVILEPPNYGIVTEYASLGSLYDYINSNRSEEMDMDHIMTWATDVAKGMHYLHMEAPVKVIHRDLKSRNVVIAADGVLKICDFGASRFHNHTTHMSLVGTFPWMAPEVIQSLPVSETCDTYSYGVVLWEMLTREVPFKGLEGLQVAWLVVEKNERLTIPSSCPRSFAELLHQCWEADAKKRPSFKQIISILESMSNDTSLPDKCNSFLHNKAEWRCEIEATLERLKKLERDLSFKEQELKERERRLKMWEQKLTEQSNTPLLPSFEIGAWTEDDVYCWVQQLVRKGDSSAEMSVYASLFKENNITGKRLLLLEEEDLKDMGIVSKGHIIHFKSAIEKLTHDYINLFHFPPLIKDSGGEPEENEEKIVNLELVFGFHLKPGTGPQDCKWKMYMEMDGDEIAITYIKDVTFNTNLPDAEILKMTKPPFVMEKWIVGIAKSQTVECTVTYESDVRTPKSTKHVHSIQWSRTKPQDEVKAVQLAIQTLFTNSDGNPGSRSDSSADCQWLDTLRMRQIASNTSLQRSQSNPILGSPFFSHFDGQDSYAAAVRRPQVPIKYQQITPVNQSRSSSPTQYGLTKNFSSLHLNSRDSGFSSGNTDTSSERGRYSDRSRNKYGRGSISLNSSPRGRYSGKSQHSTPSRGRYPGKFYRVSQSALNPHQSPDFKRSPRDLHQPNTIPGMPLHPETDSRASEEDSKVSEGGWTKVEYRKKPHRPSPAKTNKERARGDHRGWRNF

## CN(C(=O)CN1CCOCC1)c1ccc2sc3c(-c4cccc5c(=O)cc(N6CC7CCC(C6)O7)oc45)cccc3c2c1 [NU5455]
  inhibition at 1 µM: -0.7%
